In series [1] the target is T1, recombinant integrase (HIV-1 integrase) (Human immunodeficiency virus type 1 group M subtype B, UniProt P04585).
T1 construct: Assays for the strand transfer activity of integrase were conducted in accordance with WO 02/30930 for recombinant integrase
Briefly: HIV-1 integrase assay: strand transfer catalyzed by recombinant integrase. The settings on record: strand transfer activity. It counts as biochemical. As for the experimental part: HIV-1 Integrase Assay: Strand Transfer Catalyzed by Recombinant Integrase
Assays for the strand transfer activity of integrase were conducted in accordance with WO 02/30930 for recombinant integrase. […] For example, the compounds prepared in Examples 1 to 5 were tested in the integrase assay and found to have the IC50 values in Table B. (Compounds 6A and 6B were not tested in this assay.)
Further description on conducting the assay using preassembled complexes is found in Wolfe, A. L. et al., J. Virol. 1996, 70: 1424-1432, Hazuda et al., J. Virol. 1997, 71: 7005-7011; Hazuda et al., Drug Design and Discovery 1997, 15: 17-24; and Hazuda et al., Science 2000, 287: 646-650.

Series [2] concerns HIV-1. The experiment in a line: Inhibition of acute HIV-1 infection of T-lymphoid cells (spread assay). It counts as cell-based. As for the experimental part:
Assay for Inhibition of HIV-1 Replication
Assays for the inhibition of acute HIV-1 infection of T-lymphoid cells were conducted in accordance with Vacca, J. P. et al, Proc. Natl. Acad. Sci. USA 1994, 91: 4096.

Series [3] deals with wild type IIIB. Briefly: Single cycle infectivity assay in HeLa P4-2 cells, wild type virus. The class given is cell-based, HIV. To be noted: single cycle infectivity, wild type IIIB, read-out: wild type IIIB IC50.
Series [4] concerns virus containing G140S/Q148H mutation in the integrase gene. The settings on record: k = IC50(mutant)/IC50(wild type). As for the experimental part: (§1) An assay for measuring the inhibition of acute HIV infection with HeLa P4-2 cells in a single cycle infectivity assay was conducted using methods described in Joyce et al., J. Biol. Chem. 2002, 277: 45811, Hazuda et al., Science 2000, 287: 646, and Kimpton et al, J. Virol. 1992, 66: 2232. Proviral plasmids encoding viruses containing specific mutations in the integrase gene (N155H, Q148R, Y143R, E92Q, or G140S/Q148H) were generated by site-directed mutagenesis, and viruses were produced by transfecting 293T cells with the appropriate proviral plasmids.

In series [5] the test system is virus containing N155H mutation in the integrase gene. To be noted: k = IC50(mutant)/IC50(wild type). How it is done: as §1
Series [6] concerns virus containing Q148R mutation in the integrase gene. To be noted: k = IC50(mutant)/IC50(wild type). As for the experimental part:
as §1

Series [7] has as its system virus containing Y143R mutation in the integrase gene. To be noted: k = IC50(mutant)/IC50(wild type). How it is done: as §1
The mark [8] stands for this setting: Human immunodeficiency virus 1, IIIB, HeLaP4-2, HeLa P4-2 cells.

Here are results for 11 compounds from US8513234B2, “HIV integrase inhibitors” (Merck Sharp & Dohme Corp., priority 2008, dated 2013).

What is called IC50 is the concentration at which inhibition is half-maximal.

Molecules are shown by their SMILES. Where two headings read alike, the source gives them in different places.

Turning to `Cc1ccc(CNC(=O)c2nc3n(c(=O)c2O)[C@H](C)CCC[C@H]3N(C)C(=O)C(=O)N(C)C)cc1F` (racemic) [Compound 3A, Racemic-trans-N-(2-{[(3-fluoro-4-methylbenzyl)amino]carbonyl}-3-hydroxy-6-methyl-4-oxo-4,6,7,8,9,10-hexahydropyrimido[1,2-a]azepin-10-yl)-N,N′,N′-trimethylethanediamide], the values for the IC50 in series [1] (read-out: IC50) and in series [3] (setting [8]) were 40 nM and 31 nM, respectively. In addition, the “IC95 (nM) in the presence of 10% FBS” value in series [2] is 18 nM. Further, in series [4], the “Number of fold shift in IC50 versus wild type IIIB, G140S/Q148H” value (from here on “Number of fold shift … G140S/Q148H”) is 4. Moreover, the “Number of fold shift in IC50 versus wild type IIIB, N155H” value (“Number of fold shift … N155H” for short) in series [5] was found to be 1. For the same compound, the “Number of fold shift in IC50 versus wild type IIIB, Q148R” value (shortened to “Number of fold shift … Q148R”) in series [6] came to 1.
As to `CC[C@@H]1COC[C@@H](N(C)C(=O)C(=O)N(C)C)c2nc(C(=O)NCc3ccc(F)cc3)c(O)c(=O)n21` [Compound 5D, N-((6R,10S)-6-ethyl-2-{[(4-fluorobenzyl)amino]carbonyl}-3-hydroxy-4-oxo-6,7,9,10-tetrahydro-4H-pyrimido[1,2-d][1,4]oxazepin-10-yl)-N N′ N′-trimethylethanediamide], the results for the IC50 in series [1] (read-out: IC50) and in series [3] (setting [8]) were 42 nM and 26 nM, respectively. Moreover, the “IC95 (nM) in the presence of 10% FBS” value in series [2] came to 20 nM. Also, the “Number of fold shift … G140S/Q148H” value in series [4] is reported as 18. Further, in series [5], the “Number of fold shift … N155H” value was determined as 13. For the same compound, the “Number of fold shift … Q148R” value in series [6] is recorded as 14. Further, in series [7], the “Number of fold shift in IC50 versus wild type IIIB, Y143R” value (“Number of fold shift … Y143R” below) amounted to 1.
As for `Cc1cc(CNC(=O)c2nc3n(c(=O)c2O)CC(C)(C)CC[C@@H]3N(C)C(=O)C(=O)N(C)C)ccc1F` [Compound 1B, N-((10S)-2-{[(4-fluoro-3-methylbenzyl)amino]carbonyl}-3-hydroxy-7,7-dimethyl-4-oxo-4,6,7,8,9,10-hexahydropyrimido[1,2-a]azepin-10-yl)-N,N′,N′-trimethylethanediamide], the IC50 was 38 nM in series [1] (read-out: IC50) and 13 nM in series [3] (setting [8]). The “IC95 (nM) in the presence of 10% FBS” value in series [2] amounted to 10 nM. Further, the “Number of fold shift … G140S/Q148H” value in series [4] was found to be 34. Moreover, the “Number of fold shift … N155H” value in series [5] is listed as 14. The “Number of fold shift … Q148R” value in series [6] was 12. Also, the “Number of fold shift … Y143R” value in series [7] is on record as 1.
In the case of `Cc1cc(CNC(=O)c2nc3n(c(=O)c2O)CC(C)(C)CC[C@H]3N(C)C(=O)C(=O)N(C)C)ccc1F` [Compound 1A, N-((10R)-2-{[(4-fluoro-3-methylbenzyl)amino]carbonyl}-3-hydroxy-7,7-dimethyl-4-oxo-4,6,7,8,9,10-hexahydropyrimido[1,2-a]azepin-10-yl)-N,N′,N′-trimethylethanediamide], the values for the IC50 in series [1] (read-out: IC50) and in series [3] (setting [8]) were 42 nM and 41 nM, respectively. Also, in series [2], the “IC95 (nM) in the presence of 10% FBS” value is 12 nM. Moreover, the “Number of fold shift … G140S/Q148H” value in series [4] is given as 9. In addition, in series [5], the “Number of fold shift … N155H” value is reported as 1. Further, the “Number of fold shift … Q148R” value in series [6] was 2. In addition, in series [7], the “Number of fold shift … Y143R” value is listed as 1.
With `CO[C@@]1(C)CC[C@H](N(C)C(=O)C(=O)N(C)C)c2nc(C(=O)NCc3ccc(F)c(C)c3)c(O)c(=O)n2C1` [Compound 2B, N-((7S,10S)-2-{[(4-fluoro-3-methylbenzyl)amino]carbonyl}-3-hydroxy-7-methoxy-7-methyl-4-oxo-4,6,7,8,9,10-hexahydropyrimido[1,2-a]azepin-10-yl)-N,N′,N′-trimethylethanediamide], the IC50 in series [1] (IC50 (nM)) is 41 nM; in series [3] (setting [8]), 8 nM. In addition, the “IC95 (nM) in the presence of 10% FBS” value in series [2] was found to be 9 nM. Besides, the “Number of fold shift … G140S/Q148H” value in series [4] worked out at 190. Further, in series [5], the “Number of fold shift … N155H” value came out at 24. For the same compound, the “Number of fold shift … Q148R” value in series [6] amounted to 24. In addition, the “Number of fold shift … Y143R” value in series [7] worked out at 3.
For `Cc1ccc(CNC(=O)c2nc3n(c(=O)c2O)C(C)CCCC3N(C)C(=O)C(=O)N(C)C)cc1F` (single isomer, unassigned) [Compound 3B, Cis-N-(2-{[(3-fluoro-4-methylbenzyl)amino]carbonyl}-3-hydroxy-6-methyl-4-oxo-4,6,7,8,9,10-hexahydropyrimido[1,2-a]azepin-10-yl)-N,N′,N′-trimethylethanediamide], the IC50 in series [1] (IC50 (nM)) is 44 nM; in series [3] (setting [8]), 48 nM. The “IC95 (nM) in the presence of 10% FBS” value in series [2] amounted to 41 nM. Moreover, the “Number of fold shift … G140S/Q148H” value in series [4] worked out at 2. The “Number of fold shift … N155H” value in series [5] is recorded as 1. Also, in series [6], the “Number of fold shift … Q148R” value stood at 1. The “Number of fold shift … Y143R” value in series [7] is on record as 1.
As to `Cc1cc(CNC(=O)c2nc3n(c(=O)c2O)[C@H](C)COC[C@H]3N(C)C(=O)C(=O)N(C)C)ccc1F` [Compound 4D, N-((6R,10S)-2-{[(4-fluoro-3-methylbenzyl)amino]carbonyl}-3-hydroxy-6-methyl-4-oxo-6,7,9,10-tetrahydro-4H-pyrimido[1,2-d][1,4]oxazepin-10-yl)-N,N′,N′-trimethylethanediamide], the IC50 in series [1] (read-out: IC50) was 36 nM; in series [3] (setting [8]), 20 nM. For the same compound, the “IC95 (nM) in the presence of 10% FBS” value in series [2] is 6 nM. For the same compound, in series [4], the “Number of fold shift … G140S/Q148H” value turned out to be 72. Besides, the “Number of fold shift … N155H” value in series [5] is 8. The “Number of fold shift … Q148R” value in series [6] is given as 9. For the same compound, the “Number of fold shift … Y143R” value in series [7] is 2.
For `Cc1cc(CNC(=O)c2nc3n(c(=O)c2O)[C@@H](C)COC[C@@H]3N(C)C(=O)C(=O)N(C)C)ccc1F` [Compound 4B, N-((6S,10R)-2-{[(4-fluoro-3-methylbenzyl)amino]carbonyl}-3-hydroxy-6-methyl-4-oxo-6,7,9,10-tetrahydro-4H-pyrimido[1,2-d][1,4]oxazepin-10-yl)-N,N′,N′-trimethylethanediamide], the IC50 in series [1] (read-out: IC50) turned out to be 39 nM; in series [3] (setting [8]), 32 nM. Also, in series [2], the “IC95 (nM) in the presence of 10% FBS” value was found to be 7 nM. For the same compound, in series [4], the “Number of fold shift … G140S/Q148H” value was 20. The “Number of fold shift … N155H” value in series [5] is listed as 2. The “Number of fold shift … Q148R” value in series [6] was 3. For the same compound, the “Number of fold shift … Y143R” value in series [7] was 2.
As for `CN(C)C(=O)C(=O)N(C)C1COCCn2c1nc(C(=O)NCc1ccc(F)cc1)c(O)c2=O` (single isomer, unassigned; (+)) [Compound V, (+)N-(2-{[(4-fluorobenzyl)amino]carbonyl}-3-hydroxy-4-oxo-6,7,9,10-tetrahydro-4h-pyrimido[1,2-d][1,4]oxazepin-10-yl)-N,N′,N′-trimethylethanediamide, reference compound], the IC50 in series [3] (setting [8]) was 37 nM. Moreover, the “Number of fold shift … G140S/Q148H” value in series [4] is >32. The “Number of fold shift … N155H” value in series [5] turned out to be 10. In series [6], the “Number of fold shift … Q148R” value is recorded as 13. In addition, the “Number of fold shift … Y143R” value in series [7] is recorded as 1.
As for `CN(C)C(=O)C(=O)N(C)C1COCCn2c1nc(C(=O)NCc1ccc(F)cc1)c(O)c2=O` (single isomer, unassigned; (-)) [Compound W, (−)N-(2-{[(4-fluorobenzyl)amino]carbonyl}-3-hydroxy-4-oxo-6,7,9,10-tetrahydro-4h-pyrimido[1,2-d][1,4]oxazepin-10-yl)-N,N′,N′-trimethylethanediamide, reference compound], in series [3] (HeLa P4-2 cells), the IC50 is 26 nM. Also, in series [4], the “Number of fold shift … G140S/Q148H” value is >73. Besides, the “Number of fold shift … N155H” value in series [5] was 29. Moreover, the “Number of fold shift … Q148R” value in series [6] was determined as 67. For the same compound, in series [7], the “Number of fold shift … Y143R” value turned out to be 3.
Take `CCN(C(=O)C(=O)N(C)C)[C@H]1CC[C@H](OC)Cn2c1nc(C(=O)NCc1ccc(F)cc1)c(O)c2=O` [Compound 6B, N-ethyl-N-((7S,10S)-2-{[(4-fluorobenzyl)amino]carbonyl}-3-hydroxy-7-methoxy-4-oxo-4,6,7,8,9,10-hexahydropyrimido[1,2-a]azepin-10-yl)-N,N-dimethylethanediamide]: the “IC95 (nM) in the presence of 10% FBS” value in series [2] is on record as 14 nM. The IC50 in series [3] (setting [8]) was 13 nM. Moreover, the “Number of fold shift … G140S/Q148H” value in series [4] is >100. Also, the “Number of fold shift … N155H” value in series [5] turned out to be 13. The “Number of fold shift … Q148R” value in series [6] is >100. Besides, the “Number of fold shift … Y143R” value in series [7] is >100.
